Laboratory results published in patent US8772353B2, “Method for enhancing the bioavalability of ospemifene” (Hormos Medical Ltd., priority 2004, dated 2014).
Where two headings read alike, the source gives them in different places.

Tests used:
[1] = Study A: bioavailability of ospemifene after high caloric, high-fat breakfast versus fasted condition; conditions: for effect of food intake on bioavailability: 60 mg ospemifene tablet, single oral dose, high caloric (860 kcal), high-fat meal versus fasted, serum
Experimental: Blood samples for pharmacokinetic assessments were drawn during 72 hours at each study period. A washout period between the two treatments was at least 2 weeks. […] The meal provided approximately 150, 170 and 540 kcal from protein, carbohydrate and fat, respectively.

[2] = cited from earlier work
[3] = cited from earlier work; remark: listed apart in the source
[4] = 60 mg ospemifene tablet, single oral dose, low caloric (300 kcal), low-fat meal versus fasted, serum
Experimental: The composition of the light breakfast (approximately 300 kcal) was as follows: two slices of toast with margarine (5 g, fat content 60%), 6 slices (30 g) of cucumber, 240 ml skimmed (non-fat) milk and 100 ml orange juice. The test meal provided approximately 50, 180 and 70 kcal from protein, carbohydrate and fat, respectively.

[5] = Anttila M., 1997; cited from earlier work

SMILES	effect of food intake on bioavailability [1]	effect of food intake on ospemifene absorption (increase) ([1]; oral, food intake versus fasted)	aqueous solubility [2]	tolerability ([3]; in vivo)	bioavailability ([3]; oral administration)	effect of food intake on bioavailability [4]	effect of food intake on absorption [5]	effect of food intake on bioavailability [5]
OCCOc1ccc(/C(=C(/CCCl)c2ccccc2)c2ccc(O)cc2)cc1 [4-hydroxy-ospemifene, 4-hydroxyospemifene]	substantial effect							
OCCOc1ccc(/C(=C(/CCCl)c2ccccc2)c2ccccc2)cc1 [ospemifene]	enhanced	2-3 fold	low aqueous solubility	excellent tolerability	rather low	enhanced		
CN(C)CCOc1ccc(/C(=C(/CCCl)c2ccccc2)c2ccccc2)cc1 [toremifene]			low aqueous solubility				retarded the absorption	did not have any positive effect
